Reference: patent US20130018091A1, “TREATMENT OF ALLODYNIA AND HYPERALGESIA” (priority 2009, published 2013)

What was measured:
[1] = tested on: Sprague-Dawley rats; assay: Chronic sciatic nerve ligation model in rats (mechanical allodynia, Von Frey); type: in vivo, rat; conditions: 30.0 mg/kg p.o., n=8/group
From the text: Following a 10-day post-operative period after partial ligation of the sciatic nerve as described by Seltzer et al, each of the operated Sprague-Dawley rats (obtained from Charles River, Inc.) will be tested for the development of consistent, mechanical allodynia (pain response to a non-noxious stimulus). Animals are placed in a bottomless plexiglass box placed on a stainless steel platform with ¼″ holes. After at least a 30-min conditioning period in which rats are allowed to sit quietly in the cages on the platform, a baseline mechanical sensitivity is determined which represents the pre-drug 50% paw withdrawal threshold. […] The 50% threshold for foot withdrawal is determined by using the “Up and Down” step procedure. […] If the pressure of the largest diameter fiber raises the foot without a withdrawal, it is considered as “no response.” and recorded as >300 g on the data sheet.
Following the measurement of the initial predrug responses, the rats will be given an p.o. injection of tonabersat (n=8 rats per dose level). The mechanical threshold will then be assessed at 1, 2, 4, 6, 8, and 24 hrs post-injection to determine the duration of action of the test compound and the TPE in this model of mechanical allodynia. […]
The withdrawal threshold for each animal determined at each time point is computed using the “xoxox” step procedure originally developed by Dixon (1980). […]

[2] = tested on: CF1 mouse; assay: Formalin-induced nociception model in mice (hyperalgesia and inflammation); type: in vivo; conditions: 45.0 mg/kg p.o., n=8/group; for Drug-treated AUC (duration of licking): formalin 1 hour after dosing
Description: An injection of 0.5% formalin is made into the planter region of a CF1 mouse (obtained from Charles River, Inc.) right hind paw. This elicits a distinct biphasic behavioral profile characterized by the mouse licking the affected paw. Immediately following the injection the mouse licks the paw for about 10 minutes. This is phase 1 (acute) and is followed by a brief latent period where there is little behavioral activity. A more prolonged period of about 20 to 30 minutes of paw licking ensues which constitutes phase 2 (inflammatory).
Prior to the administration of the test drug or vehicle each mouse undergoes a 15-minute conditioning period in one of several 6″ tall plexiglass observation tubes (4″ diameter) that are placed in front of a mirror. Following the conditioning period, doses of tonabersat will be administered p.o. and the mouse returned to its home tube. At a time determined to correlate with peak plasma levels (1 hour), formalin will be injected sub-dermally (20 ul; 27 gauge needle) into the plantar surface of the right hind foot. The bevel of the needle is placed facing down toward the skin surface. Following injection of the formalin each animal is observed for the first 2 minutes of each 5 minute epoch for a total of 45 minutes. The cumulative length of licking for each 2 minute time period is measured. An animal receiving the requisite volume of vehicle is alternated with each mouse given the test drug. Animals are euthanized following the conclusion of the experiment. An n of 8 mice per group will be employed in this study.
Area under the curve (AUC) determination is made using the GraphPad Prism Version 3.03. Total AUC is calculated for both the test and control groups for both the acute and inflammatory phases. The AUC for individual animals for each phase is also calculated and converted to percentage of total AUC of control. The average percentages and SEM for both the drug treated and control are calculated and tested for significant difference.

[3] = tested on: Sprague-Dawley rats; conditions: general statement, no dose given; cited from earlier work

| Structure (SMILES) | % Control (threshold for foot withdrawal relative to predrug mean) ([1]; at time of peak effect 6.0 h, p = <0.05) [%] | Time of peak effect ([1]; threshold for foot withdrawal) [h] | Drug-treated AUC (duration of licking) ([2]; Acute Phase, Control AUC 185.8) | % Inhibition of Control ([2]; Acute Phase, p = >0.05) [%] | Drug-treated AUC (duration of licking) ([2]; Inflammatory Phase, Control AUC 446.7) | % Inhibition of Control ([2]; Inflammatory Phase, p = <0.05) [%] | Activity in sciatic nerve ligation model [3] |
| --- | --- | --- | --- | --- | --- | --- | --- |
| CC(=O)c1ccc2c(c1)[C@H](NC(=O)c1ccc(F)c(Cl)c1)[C@H](O)C(C)(C)O2 [Tonabersat, cis-6-acetyl-4-(S)-(3-chloro-4-fluorobenzoylamino)-3,4-dihydro-2,2-dimethyl-2H-1-benzopyran-3-(S)-ol] | 237.0 | 6.0 | 116.4 | 37.3 | 135.8 | 69.6 |  |
| NCC1(CC(=O)O)CCCCC1 [gabapentin] |  |  |  |  |  |  | active |
| CC(C)C[C@H](CN)CC(=O)O [pregabalin] |  |  |  |  |  |  | active |
